Like-named read-outs stand apart in the source and are kept apart here.
Legend:
[1] = test system: BTK and AKT phosphorylation; assay: Inhibitor washout assay, Mino cells; format: cell-based, human; conditions: 1 h treatment, washes with PBS
Method: The BCR pathways in the washed cells were stimulated with 10 μg/mL of goat F(ab’)2 anti-human IgM antibody, and the cells were harvested and lysed. The resulting lysates were analyzed by western blot.

BTK WT = target: T1, BTK WT (Homo sapiens, UniProt Q06187); assay: Kinase activity assay, BTK WT; format: biochemical
T1 construct: purchased Reaction Biology (contract assay)

[2] = target: T2, BTK C481S (Ibrutinib-resistant mutant) (Homo sapiens, UniProt Q06187, C481S); assay: Kinase activity assay, BTK C481S; format: biochemical
T2 construct: purchased Reaction Biology (contract assay)
T2 sequence (Q06187 whole entry C481S): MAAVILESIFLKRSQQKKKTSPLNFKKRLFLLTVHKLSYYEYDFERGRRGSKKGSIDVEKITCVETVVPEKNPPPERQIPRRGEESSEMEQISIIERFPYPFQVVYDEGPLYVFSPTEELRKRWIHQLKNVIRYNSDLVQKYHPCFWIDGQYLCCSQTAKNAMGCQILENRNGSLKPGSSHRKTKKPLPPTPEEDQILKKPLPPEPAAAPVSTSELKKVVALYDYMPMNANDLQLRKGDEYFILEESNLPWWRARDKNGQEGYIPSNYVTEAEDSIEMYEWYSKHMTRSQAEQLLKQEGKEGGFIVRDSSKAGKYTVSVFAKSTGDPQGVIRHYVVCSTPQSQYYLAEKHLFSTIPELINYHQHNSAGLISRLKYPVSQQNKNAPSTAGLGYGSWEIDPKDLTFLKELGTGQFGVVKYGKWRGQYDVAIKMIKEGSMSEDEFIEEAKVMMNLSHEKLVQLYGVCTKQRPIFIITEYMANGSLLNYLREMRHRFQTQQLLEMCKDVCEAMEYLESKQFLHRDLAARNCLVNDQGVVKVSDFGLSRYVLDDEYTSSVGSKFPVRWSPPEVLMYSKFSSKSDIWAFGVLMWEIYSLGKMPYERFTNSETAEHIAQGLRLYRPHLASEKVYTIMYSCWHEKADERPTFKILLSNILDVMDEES

PI3Kα = target: T3, PI3Kα (Homo sapiens, UniProt P42336); assay: Adapta kinase activity assay, PI3Kα; format: biochemical
T3 construct: purchased ThermoFisher Scientific (contract assay)
T3 sequence (P42336 whole entry): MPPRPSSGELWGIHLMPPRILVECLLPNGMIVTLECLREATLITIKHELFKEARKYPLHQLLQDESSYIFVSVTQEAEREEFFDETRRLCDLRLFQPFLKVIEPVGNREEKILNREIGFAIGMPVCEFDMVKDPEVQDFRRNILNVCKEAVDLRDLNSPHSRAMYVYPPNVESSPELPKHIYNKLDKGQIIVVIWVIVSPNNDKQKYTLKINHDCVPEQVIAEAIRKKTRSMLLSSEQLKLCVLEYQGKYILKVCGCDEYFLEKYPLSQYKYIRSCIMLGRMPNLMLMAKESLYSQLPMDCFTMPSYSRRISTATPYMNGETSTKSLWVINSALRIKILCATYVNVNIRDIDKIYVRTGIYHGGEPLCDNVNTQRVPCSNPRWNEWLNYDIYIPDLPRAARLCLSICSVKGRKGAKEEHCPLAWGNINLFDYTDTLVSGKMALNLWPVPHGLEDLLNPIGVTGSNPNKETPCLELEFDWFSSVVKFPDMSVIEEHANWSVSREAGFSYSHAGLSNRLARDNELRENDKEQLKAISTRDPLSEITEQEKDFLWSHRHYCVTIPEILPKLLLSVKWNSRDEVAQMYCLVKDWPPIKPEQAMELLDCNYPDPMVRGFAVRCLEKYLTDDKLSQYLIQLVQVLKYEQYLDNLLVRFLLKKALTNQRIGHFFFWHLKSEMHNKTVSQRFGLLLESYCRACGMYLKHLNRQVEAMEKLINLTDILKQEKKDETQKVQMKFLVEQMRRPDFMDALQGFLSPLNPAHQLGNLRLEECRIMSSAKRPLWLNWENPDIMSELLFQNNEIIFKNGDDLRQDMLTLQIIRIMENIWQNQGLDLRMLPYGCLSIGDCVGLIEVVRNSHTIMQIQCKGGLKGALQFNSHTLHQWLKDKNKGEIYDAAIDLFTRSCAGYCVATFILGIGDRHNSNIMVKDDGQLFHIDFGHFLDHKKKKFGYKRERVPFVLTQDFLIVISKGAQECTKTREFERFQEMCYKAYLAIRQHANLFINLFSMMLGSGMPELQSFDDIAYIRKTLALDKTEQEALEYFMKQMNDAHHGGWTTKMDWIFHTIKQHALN
T3 sequence (P27986 whole entry partner): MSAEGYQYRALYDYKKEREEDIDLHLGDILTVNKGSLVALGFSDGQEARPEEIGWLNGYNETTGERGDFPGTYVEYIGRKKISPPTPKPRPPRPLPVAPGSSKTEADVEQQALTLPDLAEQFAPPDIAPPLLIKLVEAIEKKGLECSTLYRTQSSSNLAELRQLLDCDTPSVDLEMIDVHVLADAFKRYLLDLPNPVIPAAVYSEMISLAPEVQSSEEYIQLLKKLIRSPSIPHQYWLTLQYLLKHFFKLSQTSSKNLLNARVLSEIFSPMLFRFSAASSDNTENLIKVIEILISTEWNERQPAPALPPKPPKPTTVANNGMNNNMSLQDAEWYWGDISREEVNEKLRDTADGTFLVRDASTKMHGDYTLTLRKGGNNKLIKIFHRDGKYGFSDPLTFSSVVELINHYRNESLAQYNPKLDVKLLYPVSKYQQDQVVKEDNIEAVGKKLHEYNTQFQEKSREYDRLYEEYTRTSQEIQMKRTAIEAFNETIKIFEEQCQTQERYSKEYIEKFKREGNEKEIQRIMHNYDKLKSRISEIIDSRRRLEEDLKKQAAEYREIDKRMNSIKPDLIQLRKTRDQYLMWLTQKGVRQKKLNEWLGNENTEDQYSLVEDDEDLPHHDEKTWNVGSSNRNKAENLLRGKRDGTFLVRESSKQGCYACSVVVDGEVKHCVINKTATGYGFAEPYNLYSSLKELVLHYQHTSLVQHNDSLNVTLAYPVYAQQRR
Method: (§1) Adapta kinase activity assays were carried out by ThermoFisher Scientific (Waltham, MA) to measure IC50 of the indicated inhibitors for PI3K isoforms. Kinase activity assays were carried out by Reaction Biology (Malvern, PA) to measure IC50 of the indicated inhibitors for BTK WT and BTK C481S (Ibrutinib-resistant mutant). Alpha Screen assays were carried out by Reaction Biology (Malvern, PA) to measure IC50 of the indicated inhibitors for His-tagged BRD4 BD1 and BD2 bromodomains.

PI3Kγ = target: T4, PI3Kγ (Homo sapiens, UniProt P48736); assay: Adapta kinase activity assay, PI3Kγ; format: biochemical
T4 construct: purchased ThermoFisher Scientific (contract assay)
T4 sequence (P48736 whole entry): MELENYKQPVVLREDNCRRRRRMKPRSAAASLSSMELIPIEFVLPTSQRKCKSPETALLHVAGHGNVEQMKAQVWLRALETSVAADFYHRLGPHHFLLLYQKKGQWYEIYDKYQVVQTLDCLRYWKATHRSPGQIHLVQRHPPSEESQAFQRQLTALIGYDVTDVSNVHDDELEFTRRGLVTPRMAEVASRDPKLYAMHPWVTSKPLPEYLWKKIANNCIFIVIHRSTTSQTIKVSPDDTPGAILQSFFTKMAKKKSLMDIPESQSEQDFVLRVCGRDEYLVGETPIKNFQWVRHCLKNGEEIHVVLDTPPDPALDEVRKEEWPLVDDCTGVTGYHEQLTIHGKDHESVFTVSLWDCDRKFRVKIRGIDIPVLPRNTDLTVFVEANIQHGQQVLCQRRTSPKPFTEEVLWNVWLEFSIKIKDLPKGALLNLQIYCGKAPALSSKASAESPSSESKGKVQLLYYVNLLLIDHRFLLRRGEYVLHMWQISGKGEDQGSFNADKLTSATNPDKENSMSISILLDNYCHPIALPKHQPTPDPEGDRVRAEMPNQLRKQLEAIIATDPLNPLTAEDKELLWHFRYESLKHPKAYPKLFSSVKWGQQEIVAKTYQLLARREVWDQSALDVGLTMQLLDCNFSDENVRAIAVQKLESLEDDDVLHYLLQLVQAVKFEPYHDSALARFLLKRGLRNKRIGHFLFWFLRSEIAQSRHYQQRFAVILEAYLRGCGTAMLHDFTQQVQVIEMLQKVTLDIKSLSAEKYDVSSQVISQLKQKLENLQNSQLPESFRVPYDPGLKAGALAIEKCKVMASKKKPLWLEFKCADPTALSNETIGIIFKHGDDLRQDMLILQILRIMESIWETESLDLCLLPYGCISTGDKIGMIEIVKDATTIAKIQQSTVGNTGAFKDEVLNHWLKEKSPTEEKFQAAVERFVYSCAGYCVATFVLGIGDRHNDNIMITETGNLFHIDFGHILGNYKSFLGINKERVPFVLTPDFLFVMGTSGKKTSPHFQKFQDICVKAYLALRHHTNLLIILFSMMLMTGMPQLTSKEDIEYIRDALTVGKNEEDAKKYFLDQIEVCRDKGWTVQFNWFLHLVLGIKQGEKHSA
Method: as §1

PI3Kδ = target: T5, PI3Kδ (Homo sapiens, UniProt O00329); assay: Adapta kinase activity assay, PI3Kδ; format: biochemical
T5 construct: purchased ThermoFisher Scientific (contract assay)
T5 sequence (O00329 whole entry): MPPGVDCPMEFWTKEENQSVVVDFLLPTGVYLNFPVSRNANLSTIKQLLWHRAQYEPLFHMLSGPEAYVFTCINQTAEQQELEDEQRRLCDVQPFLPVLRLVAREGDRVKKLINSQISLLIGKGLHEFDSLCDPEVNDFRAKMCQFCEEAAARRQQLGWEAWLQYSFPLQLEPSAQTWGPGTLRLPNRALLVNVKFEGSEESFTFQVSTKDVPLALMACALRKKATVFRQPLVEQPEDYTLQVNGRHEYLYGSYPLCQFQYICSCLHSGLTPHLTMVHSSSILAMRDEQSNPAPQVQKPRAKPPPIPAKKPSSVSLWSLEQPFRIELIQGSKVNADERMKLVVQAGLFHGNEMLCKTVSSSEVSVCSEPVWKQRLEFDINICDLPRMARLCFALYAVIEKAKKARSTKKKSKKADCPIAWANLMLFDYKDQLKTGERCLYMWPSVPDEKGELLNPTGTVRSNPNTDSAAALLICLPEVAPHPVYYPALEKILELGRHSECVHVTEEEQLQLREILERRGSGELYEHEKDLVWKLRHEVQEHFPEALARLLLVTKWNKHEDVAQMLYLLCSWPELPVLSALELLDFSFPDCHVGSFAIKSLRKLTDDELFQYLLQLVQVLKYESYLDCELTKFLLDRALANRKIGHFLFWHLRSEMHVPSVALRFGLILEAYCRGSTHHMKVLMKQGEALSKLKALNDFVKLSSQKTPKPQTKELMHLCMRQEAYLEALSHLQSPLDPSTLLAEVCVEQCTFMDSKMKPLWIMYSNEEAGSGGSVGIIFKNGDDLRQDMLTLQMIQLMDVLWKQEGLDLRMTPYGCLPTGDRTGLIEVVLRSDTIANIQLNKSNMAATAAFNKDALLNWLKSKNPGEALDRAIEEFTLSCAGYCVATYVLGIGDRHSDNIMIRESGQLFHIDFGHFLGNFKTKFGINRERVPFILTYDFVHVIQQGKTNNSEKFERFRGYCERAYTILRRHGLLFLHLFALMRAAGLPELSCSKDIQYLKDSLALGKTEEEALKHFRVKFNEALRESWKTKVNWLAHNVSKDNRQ
T5 sequence (P27986 whole entry partner): as the sequence (P27986 whole entry partner) above
Method: as §1

JeKo-1 cells [3] = assay: Cell viability assay (alamarBlue / CellTiter-Glo), JeKo-1; format: cell-based; conditions: Homo sapiens, JeKo-1, 48 h; read-out: IC50, anti-proliferative activity, JeKo-1
Method: (§2) Cells were treated with DMSO (0.1% final) or increasing concentrations of the indicated inhibitors for 48 h. 100 μL of Alamar blue (ThermoFisher Scientific) and Cell titer Glow assay reagent (Promega Cat # G9241) was added to each well, and the cells were incubated for 10 min at room temperature. Luminescence signal was measured in a VarioScan multimode reader. For Alamar Blue, fluorescence signals were read (emission at 590 nm after excitation at 560 nm). Averaged values were normalized as a percentage of DMSO (control) and analyzed by nonlinear regression then plotted for dose response using GraphPad Prism (GraphPad Software, Inc.). Experiments were performed in triplicate.

Mino cells [4] = assay: Cell viability assay (alamarBlue / CellTiter-Glo), Mino; format: cell-based; conditions: Homo sapiens, 48 h, read-out: IC50, anti-proliferative activity, Mino
Method: as §2

JeKo-1 BTK C481S cells = assay: Cell viability assay, JeKo-1 BTK C481S; format: cell-based; conditions: Homo sapiens, JeKo-1, 48 h
Method: as §2

Mino BTK C481S cells = assay: Cell viability assay, Mino BTK C481S; format: cell-based; conditions: Homo sapiens, 48 h
Method: as §2

JeKo-1 cells [5] = assay: FITC Annexin V apoptosis assay, JeKo-1; format: cell-based, human; conditions: JeKo-1, 5 μM, 24 h
Method: Jeko-1 and Mino cells were seeded at a density of 2x10^6 cells and incubated overnight. […] The labeled cells were analyzed using BD Accuri C6 Flow cytometer. Experiments were performed in duplicate.

Mino cells [6] = assay: FITC Annexin V apoptosis assay, Mino; format: cell-based, human; conditions: 5 μM, 24 h
Method: Jeko-1 and Mino cells were seeded at a density of 2x10^6 cells and incubated overnight. […] Cells were harvested and washed twice with cold PBS, and then labeled with Annexin V-FITC and PI (BD Pharmingen, Cat # 556419) or Annexin APC (Thermo Fisher, Cat # A35110) according to the manufacturer’s protocol (BD Pharmingen). The labeled cells were analyzed using BD Accuri C6 Flow cytometer. Experiments were performed in duplicate.

[7] = test system: relapsed/refractory (R/R) MCL patients; conditions: R/R MCL patients treated with Ibrutinib; cited from earlier work

T1 sequence (Q06187 whole entry): as the sequence (Q06187 whole entry C481S) above, with S481C counted along it

Cc1c(-c2ccc(C(N)=O)c3[nH]c4cc(C(C)(C)O)ccc4c23)cccc1-n1cnc2ccccc2c1=O [BMS-935177]
BTK phosphorylation after inhibitor wash out [1]: regained BTK phosphorylation

Cc1sc2c(c1C)C(c1ccc(Cl)cc1)=N[C@@H](CC(=O)OC(C)(C)C)c1nnc(C)n1-2 [JQ1]
IC50, BTK WT (BTK WT): no activity
IC50, BTK C481S [2]: no activity
IC50 (PI3Kα): > 50 µM
IC50 (PI3Kγ): > 50 µM
IC50 (PI3Kδ): > 50 µM

CN[C@@H]1C[C@H]2O[C@@](C)([C@@H]1OC)n1c3ccccc3c3c4c(c5c6ccccc6n2c5c31)C(=O)NC4 [Staurosporine]
IC50, PI3Kα (PI3Kα): no activity
IC50, PI3Kγ (PI3Kγ): no activity
IC50, PI3Kδ (PI3Kδ): no activity

C=CC(=O)N1CCC[C@@H](n2nc(-c3ccc(Oc4ccccc4)cc3)c3c(N)ncnc32)C1 [Ibrutinib]
IC50 (JeKo-1 cells [3]): 24.8 µM
IC50 (Mino cells [4]): 2440 nM
IC50 (JeKo-1 BTK C481S cells; read-out: IC50, JeKo-1 BTK C481S): 38 µM
IC50 (JeKo-1 BTK C481S cells; read-out: IC50, anti-proliferative activity, JeKo-1 BTK C481S): 38.4 µM
IC50 (Mino BTK C481S cells; read-out: IC50, Mino BTK C481S): 6 µM
IC50 (Mino BTK C481S cells; read-out: IC50, anti-proliferative activity, Mino BTK C481S): 6.36 µM
BTK phosphorylation after inhibitor wash out [1]: retained inhibition of BTK phosphorylation
apoptosis (Annexin V and propidium incorporation) (JeKo-1 cells [5]): no significant effect
apoptosis (Annexin V and propidium incorporation) (Mino cells [6]): mild effect
median progression free survival [7]: ~ 14 months
overall response rate [7]: 68%
patients reaching a complete response [7]: 21%
